Source: ChEMBL document CHEMBL4359816, “Discovery and Optimization of Quinolinone Derivatives as Potent, Selective, and Orally Bioavailable Mutant Isocitrate Dehydrogenase 1 (mIDH1) Inhibitors” (J Med Chem, 2019)
Values after ≈ are worked out from the molar mass of the structure shown. One block for each compound: values may come before it.

Columns and labels:
MDR1 (P-gp) = assay: Efflux ratio of apparent permeability from basolateral side to apical side over apical side to basolateral side in MDCK cells harboring MDR1 (unknown origin) at 10 uM incubated for 2 hrs by LC-MS/MS analysis; type: ADME, cell-based, Canis lupus familiaris; conditions: dog
[1] = Metabolic stability in human liver microsomes assessed as compound remaining after 30 mins; type: ADME, Microsome; conditions: read-out: Stability
[2] = Metabolic stability in mouse liver microsomes assessed as compound remaining after 30 mins; type: ADME, Microsome; conditions: read-out: Stability
[3] = Kinetic solubility of the compound; type: physicochemical; conditions: read-out: Kinetic_solubility
[4] = biological target: T1, Isocitrate dehydrogenase [NADP] cytoplasmic (Homo sapiens, UniProt O75874, R132C); assay: Inhibition of human Myc-DDK-tagged IDH1 R132C mutant assessed as reduction in NADPH consumption pre-incubated for 15 mins followed by alpha-ketoglutarate substrate and NADPH addition after 45 mins by diaphorase and resazurin dye based assay
T1 sequence (O75874 2-414 R132C limits assumed): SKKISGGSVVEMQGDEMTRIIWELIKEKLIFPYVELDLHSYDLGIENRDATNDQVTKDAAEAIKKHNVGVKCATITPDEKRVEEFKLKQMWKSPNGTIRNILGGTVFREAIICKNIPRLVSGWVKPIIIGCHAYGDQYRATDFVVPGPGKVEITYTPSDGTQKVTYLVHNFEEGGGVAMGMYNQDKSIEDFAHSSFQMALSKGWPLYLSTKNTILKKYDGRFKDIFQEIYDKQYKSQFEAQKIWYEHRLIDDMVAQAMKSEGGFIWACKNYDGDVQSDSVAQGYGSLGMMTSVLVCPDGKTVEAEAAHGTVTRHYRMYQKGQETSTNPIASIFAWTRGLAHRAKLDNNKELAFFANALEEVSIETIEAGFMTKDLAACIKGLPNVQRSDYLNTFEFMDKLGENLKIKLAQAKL

[5] = biological target: Isocitrate dehydrogenase [NADP] cytoplasmic (Homo sapiens, UniProt O75874); assay: Inhibition of wild-type IDH1 (unknown origin) by NADPH fluorescence based assay
Chain of Isocitrate dehydrogenase [NADP] cytoplasmic (Homo sapiens, UniProt O75874) (O75874 whole entry): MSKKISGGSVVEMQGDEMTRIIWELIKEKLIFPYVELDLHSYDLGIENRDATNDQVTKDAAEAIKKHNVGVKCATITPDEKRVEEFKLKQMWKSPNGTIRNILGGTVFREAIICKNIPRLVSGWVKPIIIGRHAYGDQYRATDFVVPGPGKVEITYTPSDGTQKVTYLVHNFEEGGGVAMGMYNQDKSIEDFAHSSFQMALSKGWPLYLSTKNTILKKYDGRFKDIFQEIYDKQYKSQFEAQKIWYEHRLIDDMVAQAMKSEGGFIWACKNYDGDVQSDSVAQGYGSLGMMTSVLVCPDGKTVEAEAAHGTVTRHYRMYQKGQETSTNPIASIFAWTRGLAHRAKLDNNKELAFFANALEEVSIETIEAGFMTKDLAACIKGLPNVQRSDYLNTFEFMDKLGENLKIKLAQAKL

[6] = biological target: T1, Isocitrate dehydrogenase [NADP] cytoplasmic; assay: Inhibition of IDH1 R132C mutant in human HCT116 cells assessed as reduction in 2-HG levels after 24 hrs by RapidFire high-throughput mass spectrometry assay; type: cell-based
[7] = biological target: T1, Isocitrate dehydrogenase [NADP] cytoplasmic; assay: Inhibition of human Myc-DDK-tagged IDH1 R132C mutant expressed in human U87MG cells assessed as reduction in 2-HG levels after 24 hrs by RapidFire high-throughput mass spectrometry assay; type: cell-based
[8] = Half-life in BALB/c mouse at 5 mg/kg, po measured up to 24 hrs; type: ADME, organism-based; conditions: in vivo
[9] = Total Cmax in BALB/c mouse at 5 mg/kg, po after 1 hr; type: ADME, organism-based; design: dose 5 mg/kg, route oral; conditions: in vivo
[10] = AUC (0 to 8 hrs) in BALB/c mouse at 5 mg/kg, po measured up to 24 hrs; type: ADME, organism-based; design: dose 5 mg/kg, time < 8 hr, route oral; conditions: in vivo
[11] = Metabolic stability in rat liver microsomes assessed as compound remaining after 30 mins; type: ADME, Microsome; conditions: read-out: Stability
[12] = biological target: Isocitrate dehydrogenase [NADP] cytoplasmic (Homo sapiens, UniProt O75874, R132G); assay: Inhibition of human Myc-DDK-tagged IDH1 R132G mutant expressed in human U87MG cells assessed as reduction in 2-HG levels after 24 hrs by RapidFire high-throughput mass spectrometry assay; type: cell-based
Chain of Isocitrate dehydrogenase [NADP] cytoplasmic (Homo sapiens, UniProt O75874, R132G) (O75874 2-414 R132G limits assumed): as the sequence (O75874 2-414 R132C limits assumed) above, with C131G counted along it

[13] = biological target: Isocitrate dehydrogenase [NADP] cytoplasmic (Homo sapiens, UniProt O75874, R132L); assay: Inhibition of human Myc-DDK-tagged IDH1 R132L mutant expressed in human U87MG cells assessed as reduction in 2-HG levels after 24 hrs by RapidFire high-throughput mass spectrometry assay; type: cell-based
Chain of Isocitrate dehydrogenase [NADP] cytoplasmic (Homo sapiens, UniProt O75874, R132L) (O75874 2-414 R132L limits assumed): as the sequence (O75874 2-414 R132C limits assumed) above, with C131L counted along it

[14] = biological target: Isocitrate dehydrogenase [NADP] cytoplasmic (Homo sapiens, UniProt O75874, R132S); assay: Inhibition of human Myc-DDK-tagged IDH1 R132S mutant expressed in human U87MG cells assessed as reduction in 2-HG levels after 24 hrs by RapidFire high-throughput mass spectrometry assay; type: cell-based
Chain of Isocitrate dehydrogenase [NADP] cytoplasmic (Homo sapiens, UniProt O75874, R132S) (O75874 2-414 R132S limits assumed): as the sequence (O75874 2-414 R132C limits assumed) above, with C131S counted along it

[15] = Permeability of the compound by PAMPA; type: ADME; conditions: read-out: permeability
[16] = Apparent permeability of the compound across apical side to basolateral side in human Caco2 cells; type: ADME, cell-based; conditions: Caco-2
[17] = Apparent permeability of the compound across basolateral side to apical side in human Caco2 cells; type: ADME, cell-based; conditions: Caco-2
[18] = Efflux ratio of apparent permeability from basolateral side to apical side over apical side to basolateral side in human Caco2 cells; type: ADME, cell-based; conditions: Caco-2
[19] = Protein binding in human plasma; type: ADME, cell-free; conditions: read-out: PPB (converted)
[20] = Protein binding in mouse plasma; type: ADME, cell-free; conditions: read-out: PPB (converted)
[21] = Protein binding in rat plasma; type: ADME, cell-free; conditions: read-out: PPB (converted)
[22] = Protein binding in dog plasma; type: ADME, cell-free, Canis lupus familiaris; conditions: read-out: PPB (converted)
[23] = Octanol/aqueous buffer partition coefficient, log D of the compound at pH 7.4; type: physicochemical
[24] = Half-life in human hepatocytes; type: ADME, cell-based, Hepatocyte
[25] = Intrinsic clearance in human hepatocytes; type: ADME, cell-based, Hepatocyte; conditions: read-out: CLH
[26] = Half-life in rat at 1 mg/kg, iv or 5 mg/kg, po; type: ADME, organism-based; conditions: in vivo
[27] = Cmax in rat at 1 mg/kg, iv or 5 mg/kg, po; type: ADME, organism-based; conditions: in vivo
[28] = Total AUC (infinity) in rat at 1 mg/kg, iv or 5 mg/kg, po; type: ADME, organism-based; conditions: in vivo
[29] = fAUC (infinity) in rat at 1 mg/kg, iv or 5 mg/kg, po; type: ADME, organism-based; conditions: in vivo
[30] = Clearance in rat at 1 mg/kg, iv or 5 mg/kg, po; type: ADME, organism-based; conditions: in vivo
[31] = Oral bioavailability in rat at 5 mg/kg; type: ADME, organism-based; conditions: in vivo
[32] = Half-life in mouse at 1 mg/kg, iv or 5 mg/kg, po; type: ADME, organism-based; conditions: in vivo
[33] = Total Cmax in mouse at 1 mg/kg, iv or 5 mg/kg, po; type: ADME, organism-based; conditions: in vivo
[34] = Total AUC (infinity) in mouse at 1 mg/kg, iv or 5 mg/kg, po; type: ADME, organism-based; conditions: in vivo
[35] = fAUC (infinity) in mouse at 1 mg/kg, iv or 5 mg/kg, po; type: ADME, organism-based; conditions: in vivo
[36] = Clearance in mouse at 1 mg/kg, iv or 5 mg/kg, po; type: ADME, organism-based; conditions: in vivo
[37] = Oral bioavailability in mouse at 5 mg/kg; type: ADME, organism-based; conditions: in vivo
[38] = Half-life in dog at 0.5 mg/kg, iv; type: ADME, organism-based, Canis lupus familiaris; conditions: in vivo
[39] = Total AUC (infinity) in dog at 0.5 mg/kg, iv; type: ADME, organism-based, Canis lupus familiaris; design: dose 0.5 mg/kg, time AUCmax, route intravenous; conditions: in vivo
[40] = fAUC (infinity) in dog at 0.5 mg/kg, iv; type: ADME, organism-based, Canis lupus familiaris; conditions: in vivo
[41] = Clearance in dog at 0.5 mg/kg, iv; type: ADME, organism-based, Canis lupus familiaris; conditions: in vivo
Homo sapiens = organism: Homo sapiens; type: cell-based
[42] = Total plasma concentration in BALB/c mouse at 5 mg/kg, po at 4 hrs; type: ADME, organism-based

- efflux ratio at 2 h, 10 µM (MDR1 (P-gp)): > 350
Structure (SMILES): N#Cc1ccnc(N2C(=O)CC[C@H]2C(=O)N(c2cncc(F)c2)[C@H](C(=O)NC2CC(F)(F)C2)c2ccccc2Cl)c1 [IVOSIDENIB]

- remaining at 0.5 h [1]: 84%
- remaining at 0.5 h [2]: 69%
- solubility kinetic [3]: 0.64 µM (≈ 0.208 µg/mL)
- IC50 [4]: 820 nM
- IC50 [5]: 75000 nM
- IC50 [6]: 3210 nM
- IC50 [7]: 258 nM
- half-life [8]: 3.57 h
- Cmax [9]: 480 nM
- AUC(0-t) at 8 h [10]: 2.66 µM·h
Structure (SMILES): Cc1nc(NCc2cc3cc(Cl)ccc3[nH]c2=O)ccc1C#N

- remaining at 0.5 h [1]: 97%
- solubility kinetic [3]: 5.7 µM (≈ 2.2 µg/mL)
- IC50 [4]: 36 nM
- IC50 [6]: 40 nM
- IC50 [7]: 4 nM
- remaining at 0.5 h [11]: 88%
- IC50 [12]: 3 nM
- IC50 [13]: 5 nM
- IC50 [14]: 129 nM
- Papp [15]: 12.7 ×10⁻⁶ cm/s
- Papp A→B [16]: 5.73 ×10⁻⁶ cm/s
- Papp B→A [17]: 9.47 ×10⁻⁶ cm/s
- efflux ratio [18]: 1.65
- fraction unbound [19]: 0.0144
- fraction unbound [20]: 0.0083
- fraction unbound [21]: 0.0045
- fraction unbound [22]: 0.0228
- logD [23]: 2.74
- half-life [24]: 3.07 h
- CLint scaled [25]: 19.1 mL/min/kg
- half-life [26]: 2.6 h
- Cmax [27]: 1900 nM
- AUC(0-inf) [28]: 10.7 µM·h
- fAUC [29]: 0.043 µM·h
- clearance [30]: 16.4 mL/min/kg
- bioavailability [31]: 75%
- half-life [32]: 3.5 h
- Cmax [33]: 5200 nM
- AUC(0-inf) [34]: 21.5 µM·h
- fAUC [35]: 0.178 µM·h
- clearance [36]: 8.5 mL/min/kg
- bioavailability [37]: 85%
- half-life [38]: 6.2 h
- AUC(0-inf) [39]: 5.8 µM·h
- fAUC [40]: 0.132 µM·h
- clearance [41]: 4.3 mL/min/kg
Structure (SMILES): COc1cc2[nH]c(=O)c([C@H](C)Nc3ncc(C#N)c(OC)n3)cc2cc1Cl

- remaining at 0.5 h [1]: 81%
- remaining at 0.5 h [2]: 42%
- solubility kinetic [3]: 0.43 µM (≈ 0.146 µg/mL)
- IC50 [4]: 2250 nM
- IC50 [5]: 100000 nM
- IC50 [6]: 1920 nM
- IC50 [7]: 1250 nM
- half-life [8]: 1.27 h
- Cmax [9]: 1060 nM
- AUC(0-t) at 8 h [10]: 2.45 µM·h
- concentration at 4 h [42]: 100 nM
Structure (SMILES): COc1cc(NCc2cc3cc(Cl)ccc3[nH]c2=O)ccc1C#N
- Ratio IC50 (Homo sapiens): 4
